In ChEMBL document CHEMBL1201862, “PubChem BioAssay data set” (2004):
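Five concentrations, 48 hours, 96-well plates. GI50 = concentration required for 50% inhibition of growth.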 The source made the active and inactive calls. Rule as the data show it: active = GI50 up to about 1.1 µM and inactive = higher.

How the values were obtained:
Assay in all cases: NCI anticancer screen, dose series, 48 h
[1] = test system: HT-29
[2] = test system: SK-MEL-28
[3] = test system: OVCAR-4
[4] = test system: HOP-18
[5] = test system: HCT-15
[6] = test system: SK-OV-3
[7] = test system: DMS-114
[8] = test system: HOP-92
[9] = test system: A549
[10] = test system: SNB-19
[11] = test system: ACHN
[12] = test system: K562
[13] = test system: SK-MEL-2
[14] = test system: UACC-257
[15] = test system: UACC-62
[16] = test system: EKVX
[17] = test system: SF-539
[18] = test system: HL-60
[19] = test system: NCI-H522
[20] = test system: SN12C
[21] = test system: MOLT-4
[22] = test system: RPMI-8226
[23] = test system: M19-MEL
[24] = test system: NCI-H226
[25] = test system: UO-31
[26] = test system: CAKI-1
[27] = test system: 786-0
[28] = test system: HCT-116
[29] = test system: CCRF-CEM
[30] = test system: IGROV-1
[31] = test system: OVCAR-8
[32] = test system: SF-295
[33] = test system: SNB-78
[34] = test system: M14
[35] = test system: SK-MEL-5
[36] = test system: SNB-75
[37] = test system: DMS-273
[38] = test system: NCI-H23
[39] = test system: OVCAR-5
[40] = test system: NCI-H460
[41] = test system: SR
[42] = test system: LXFL 529
[43] = test system: KM12
[44] = test system: SW-620
[45] = test system: SF-268
[46] = test system: HCC 2998
[47] = test system: RXF 393
[48] = test system: OVCAR-3
[49] = test system: U-251
[50] = test system: DLD-1
[51] = test system: COLO 205
[52] = test system: HOP-62
[53] = test system: Malme-3M
[54] = test system: A498
[55] = test system: LOX IMVI
[56] = test system: KM-20L2

Q: `CN1C(=O)C(C)(C)C2(SC(C)(C)C2(C)C)N(C)C1=S` (stereo unspecified) was tested. Which GI50 [1] did it give?
A: Its GI50 is > 100 µM (inactive).

Q: What about the GI50 [2] of the same molecule?
A: The GI50 was > 100 µM (inactive).

Q: And the GI50 [3]?
A: The GI50 was > 100 µM (inactive).

Q: What about the GI50 [4] of the same molecule?
A: Its GI50 is > 100 µM (inactive).

Q: What about the GI50 [5] of the same molecule?
A: The GI50 was greater than 100 µM.

Q: And the GI50 [6]?
A: Its GI50 is 36.1 µM (inactive).

Q: What about the GI50 [7] of the same molecule?
A: The GI50 was 67.3 µM (inactive).

Q: What about the GI50 [8] of the same molecule?
A: Its GI50 is 27.8 µM (inactive).

Q: What about the GI50 [9] of the same molecule?
A: Its GI50 is > 100 µM (inactive).

Q: What about the GI50 [10] of the same molecule?
A: Its GI50 is > 100 µM (inactive).

Q: And the GI50 [11]?
A: The GI50 was > 100 µM (inactive).

Q: What about the GI50 [12] of the same molecule?
A: Its GI50 is 53.8 µM (inactive).

Q: And the GI50 [13]?
A: Its GI50 is > 100 µM (inactive).

Q: What about the GI50 [14] of the same molecule?
A: Its GI50 is > 100 µM (inactive).

Q: What about the GI50 [15] of the same molecule?
A: The GI50 was 2.12 µM (inactive).

Q: What about the GI50 [16] of the same molecule?
A: The GI50 was 32 µM (inactive).

Q: What about the GI50 [17] of the same molecule?
A: The GI50 was > 100 µM (inactive).

Q: And the GI50 [18]?
A: The GI50 was 96.2 µM (inactive).

Q: What about the GI50 [19] of the same molecule?
A: The GI50 was 86.7 µM (inactive).

Q: What about the GI50 [20] of the same molecule?
A: The GI50 was > 100 µM (inactive).

Q: What about the GI50 [21] of the same molecule?
A: Its GI50 is 89.3 µM (inactive).

Q: What about the GI50 [22] of the same molecule?
A: Its GI50 is > 100 µM (inactive).

Q: What about the GI50 [23] of the same molecule?
A: Its GI50 is > 100 µM (inactive).

Q: What about the GI50 [24] of the same molecule?
A: The GI50 was > 100 µM (inactive).

Q: What about the GI50 [25] of the same molecule?
A: The GI50 was > 100 µM (inactive).

Q: What about the GI50 [26] of the same molecule?
A: The GI50 was 8.49 µM (inactive).

Q: And the GI50 [27]?
A: The GI50 was > 100 µM (inactive).

Q: And the GI50 [28]?
A: Its GI50 is > 100 µM (inactive).

Q: And the GI50 [29]?
A: The GI50 was > 100 µM (inactive).

Q: What about the GI50 [30] of the same molecule?
A: The GI50 was > 100 µM (inactive).

Q: What about the GI50 [31] of the same molecule?
A: The GI50 was > 100 µM (inactive).

Q: And the GI50 [32]?
A: Its GI50 is > 100 µM (inactive).

Q: What about the GI50 [33] of the same molecule?
A: The GI50 was > 100 µM (inactive).

Q: What about the GI50 [34] of the same molecule?
A: Its GI50 is > 100 µM (inactive).

Q: What about the GI50 [35] of the same molecule?
A: The GI50 was > 10 µM (inactive).

Q: And the GI50 [36]?
A: Its GI50 is > 100 µM (inactive).

Q: What about the GI50 [37] of the same molecule?
A: Its GI50 is > 100 µM (inactive).

Q: What about the GI50 [38] of the same molecule?
A: Its GI50 is > 100 µM (inactive).

Q: And the GI50 [39]?
A: The GI50 was > 100 µM (inactive).

Q: And the GI50 [40]?
A: The GI50 was > 100 µM (inactive).

Q: What about the GI50 [41] of the same molecule?
A: Its GI50 is 55.3 µM (inactive).

Q: And the GI50 [42]?
A: The GI50 was > 100 µM (inactive).

Q: And the GI50 [43]?
A: The GI50 was > 100 µM (inactive).

Q: And the GI50 [44]?
A: Its GI50 is > 100 µM (inactive).

Q: What about the GI50 [45] of the same molecule?
A: The GI50 was > 100 µM (inactive).

Q: What about the GI50 [46] of the same molecule?
A: Its GI50 is > 100 µM (inactive).

Q: What about the GI50 [47] of the same molecule?
A: Its GI50 is > 100 µM (inactive).

Q: What about the GI50 [48] of the same molecule?
A: Its GI50 is > 100 µM (inactive).

Q: What about the GI50 [49] of the same molecule?
A: Its GI50 is > 100 µM (inactive).

Q: What about the GI50 [50] of the same molecule?
A: The GI50 was > 100 µM (inactive).

Q: What about the GI50 [51] of the same molecule?
A: The GI50 was > 100 µM (inactive).

Q: What about the GI50 [52] of the same molecule?
A: The GI50 was > 100 µM (inactive).

Q: What about the GI50 [53] of the same molecule?
A: The GI50 was > 100 µM (inactive).

Q: Which GI50 [1] does the source give for `COc1ccc(/C=C/C(=O)c2cc(C(=O)O)c(OC)cc2OC)cc1OC` here?
A: The GI50 was > 100 µM (inactive).

Q: What about the GI50 [2] of the same molecule?
A: Its GI50 is > 100 µM (inactive).

Q: And the GI50 [3]?
A: The GI50 was > 100 µM (inactive).

Q: And the GI50 [4]?
A: Its GI50 is > 100 µM (inactive).

Q: What about the GI50 [5] of the same molecule?
A: Its GI50 is greater than 100 µM.

Q: What about the GI50 [54] of the same molecule?
A: Its GI50 is > 100 µM (inactive).

Q: And the GI50 [7]?
A: Its GI50 is > 100 µM (inactive).

Q: And the GI50 [8]?
A: Its GI50 is > 100 µM (inactive).

Q: What about the GI50 [9] of the same molecule?
A: Its GI50 is > 100 µM (inactive).

Q: What about the GI50 [10] of the same molecule?
A: Its GI50 is > 100 µM (inactive).

Q: And the GI50 [11]?
A: The GI50 was > 100 µM (inactive).

Q: And the GI50 [12]?
A: Its GI50 is > 100 µM (inactive).

Q: What about the GI50 [14] of the same molecule?
A: Its GI50 is > 100 µM (inactive).

Q: And the GI50 [15]?
A: Its GI50 is > 100 µM (inactive).

Q: And the GI50 [16]?
A: The GI50 was > 100 µM (inactive).

Q: What about the GI50 [17] of the same molecule?
A: The GI50 was > 100 µM (inactive).

Q: What about the GI50 [18] of the same molecule?
A: Its GI50 is > 100 µM (inactive).

Q: And the GI50 [19]?
A: Its GI50 is > 100 µM (inactive).

Q: And the GI50 [55]?
A: Its GI50 is > 100 µM (inactive).

Q: And the GI50 [20]?
A: The GI50 was > 100 µM (inactive).

Q: And the GI50 [21]?
A: Its GI50 is > 100 µM (inactive).

Q: And the GI50 [22]?
A: The GI50 was > 100 µM (inactive).

Q: And the GI50 [23]?
A: The GI50 was > 100 µM (inactive).

Q: What about the GI50 [24] of the same molecule?
A: The GI50 was > 100 µM (inactive).

Q: And the GI50 [27]?
A: Its GI50 is > 100 µM (inactive).

Q: What about the GI50 [28] of the same molecule?
A: The GI50 was > 100 µM (inactive).

Q: What about the GI50 [29] of the same molecule?
A: The GI50 was > 100 µM (inactive).

Q: What about the GI50 [30] of the same molecule?
A: The GI50 was > 100 µM (inactive).

Q: And the GI50 [31]?
A: Its GI50 is > 100 µM (inactive).

Q: What about the GI50 [32] of the same molecule?
A: Its GI50 is > 100 µM (inactive).

Q: What about the GI50 [33] of the same molecule?
A: The GI50 was > 100 µM (inactive).

Q: What about the GI50 [34] of the same molecule?
A: The GI50 was > 100 µM (inactive).

Q: And the GI50 [35]?
A: Its GI50 is > 100 µM (inactive).

Q: What about the GI50 [36] of the same molecule?
A: Its GI50 is > 100 µM (inactive).

Q: And the GI50 [37]?
A: The GI50 was > 100 µM (inactive).

Q: And the GI50 [38]?
A: The GI50 was > 100 µM (inactive).

Q: What about the GI50 [39] of the same molecule?
A: Its GI50 is > 100 µM (inactive).

Q: And the GI50 [40]?
A: Its GI50 is > 100 µM (inactive).

Q: And the GI50 [41]?
A: The GI50 was > 100 µM (inactive).

Q: What about the GI50 [42] of the same molecule?
A: The GI50 was > 100 µM (inactive).

Q: What about the GI50 [43] of the same molecule?
A: The GI50 was > 100 µM (inactive).

Q: What about the GI50 [44] of the same molecule?
A: Its GI50 is > 100 µM (inactive).

Q: And the GI50 [45]?
A: Its GI50 is > 100 µM (inactive).

Q: What about the GI50 [49] of the same molecule?
A: The GI50 was > 100 µM (inactive).

Q: And the GI50 [50]?
A: The GI50 was > 100 µM (inactive).

Q: What about the GI50 [56] of the same molecule?
A: The GI50 was > 100 µM (inactive).

Q: And the GI50 [51]?
A: Its GI50 is > 100 µM (inactive).

Q: And the GI50 [52]?
A: Its GI50 is > 100 µM (inactive).
